One data set concerns HFD-fed MUP-uPA mice. As to the kind of experiment: Casp2 inhibitor treatment of HFD-fed MUP-uPA mice (NASH model). It is filed as in vivo, mouse. Conditions: for circulating TG / circulating cholesterol: serum. As to the method:
FIGS. 6A-6G are pictorial and graphical diagrams showing that Casp2 inhibition ameliorates NASH. […] After 6 weeks of HFD feeding, MUP-uPA mice were treated with Ac-VDVAD (10 μg/g) for 6 weeks while kept on HFD. […] FFPE sections from livers of inhibitor or vehicle treated mice were evaluated for macrovesicular fat, ballooning hepatocytes, MDB and p62 aggregates, macrophages, collagen fibers and lipid droplets. Magnification bars: 100 μm. Images were quantitated as above and results are shown on the right as averages±SEM (Vehicle: n=6; Ac-VDVAD: n=5). […] Mean±SEM. […] Adipocyte size and density were determined as above. ATM (adipose tissue macrophages) were visualized by F4/80 staining and quantified as above.
Casp2^−/− mice were purchased from The Jackson Laboratories and crossed with either C57BL/6 or MUP-uPA mice (Sandgren et al., 1991; Weglarz et al., 2000) to generate Casp2^−/−/WT or Casp2^−/−/MUP-uPA mice, respectively. All mouse lines were either on a pure C57BL/6 genetic background or crossed into it for at least nine generations. Mice were fed with HFD (#S3282, Bio-serv) for a total of 12 weeks, starting at 8 weeks of age. Body weight increase and food consumption were monitored bi-weekly throughout the entire feeding period. Mice were starved for 3 hr before sacrifice and liver and adipose tissue were excised and weighed.
(§1) RNAs were extracted from liver or fat tissue of indicated mice or human biopsies using TRIZOL reagent according to manufacturer's instruction. cDNAs were synthesized from total RNAs using Super Script VILO cDNA Synthesis Kit (Thermo Fisher Scientific, MA) according to the supplier's instructions. The cDNAs were quantified by real-time PCR analysis using SYBR Green Master Mix (Bio-Rad, CA). Primer sequences that were used for human biopsies are as follows:
Liver and epidydimal fat were fixed in 4% paraformaldehyde for 48 hr and embedded in paraffin, sectioned, stained with hematoxylin and eosin (H&E) to evaluate gross morphology and ballooning degeneration and with Sirius Red to determine fibrosis. Prepared FFPE sections were subjected to incubation with antibodies specific to p62 and F4/80 to visualize formation of Mallory-Denk Bodies (MDB) and macrophage infiltration, respectively. For frozen-block preparation, liver tissue was embedded in Tissue-Tek OCT compound (Sakura Finetek), sectioned, and stained with Oil Red O to visualize TG accumulation. Stained areas were quantified using ImageJ software.
Liver lipids were extracted using chloroform/methanol (2:1 v/v) and plasma and liver TG and cholesterol were determined using Triglyceride Colorimetric Assay Kit (Cayman Chemical Company, MI) and Cholesterol Quantification Kit (Sigma-Aldrich, MO) according to manufacturer's instructions.
Morphological analysis of adipocytes was performed by using MRI adipocyte tools (Osman et al., 2013). Images were taken from FFPE epidydimal fat section by AXIO Imager A2 (Carl Zeiss, Germany) and subjected to MRI adipocyte software to obtain area of individual fat cell and number of adipocytes per HMF. Quantification and statistical significance were analyzed by Prism 7 software (GraphPad Prism, CA).
To examine whether Casp2 inhibition is of therapeutic value, Ac-VDVAD-CHO (C23H37N5O10), a cell permeable, Casp2 inhibitor (Talanian et al., 1997) was administrated to HFD-fed MUP-uPA mice. HFD feeding was initiated at eight weeks of age, and six weeks later the mice were given the Casp2 inhibitor on alternate days by intraperitoneal (i.p.) injection (FIG. 6A). After a 6-week treatment regimen, the mice were sacrificed and their liver and adipose tissue were examined. […] Fibrosis was also attenuated. qRT-PCR analysis confirmed that expression of inflammatory cytokines and markers as well as fibrosis-related genes was reduced in response to Casp2 inhibition (FIG. 6C). […]

The subject of a further data set is MUP-uPA mice. The following applies: HFD-fed MUP-uPA mice; cited from earlier work.
For another data set, the system named is Casp2. Kind of data set: Tunicamycin (ER stress inducer) administration to NC-fed BL6 mice, liver Casp2 expression. It is filed as in vivo, mouse. The following applies: non-transgenic 3-month-old NC-fed BL6 mice; tunicamycin 1.25 mg/kg i.p. As to the method: FIGS. 12A-12I are pictorial and graphical diagrams showing elevated Casp2 expression in ER-stressed mice and human NASH. FIG. 12A the results from immunoblot (IB) analysis of whole cell lysates (WCL) from 5-week-old WT and MUP-uPA livers (left) and WCL of livers from 3-month-old WT mice that were i.p. injected with dextrose or tunicamycin (1.25 mg/kg). Results are mean±SEM (dextrose: n=4; tunicamycin: n=5). P: precursor, C: cleaved. […] Results are mean±SEM (WT: n=5; MUP: n=9). […] Casp4 and Casp12 were examined in liver lysates of 5-week-old mice. […] Staining intensity was quantitated using ImageJ as described in FIG. 1.
as §1
ER stress in MUP-uPA liver peaks in 5- to 6-week-old mice and then declines due to reduced uPA expression in newly regenerated hepatocytes (Nakagawa et al., 2014; Sandgren et al., 1991). […]

For data set [1], the system named is human caspases (including caspase-2). Conditions: cited from earlier work.
The target in data set [2] is T1, Flag-tagged SREBP2, Q12772.
T1 chain: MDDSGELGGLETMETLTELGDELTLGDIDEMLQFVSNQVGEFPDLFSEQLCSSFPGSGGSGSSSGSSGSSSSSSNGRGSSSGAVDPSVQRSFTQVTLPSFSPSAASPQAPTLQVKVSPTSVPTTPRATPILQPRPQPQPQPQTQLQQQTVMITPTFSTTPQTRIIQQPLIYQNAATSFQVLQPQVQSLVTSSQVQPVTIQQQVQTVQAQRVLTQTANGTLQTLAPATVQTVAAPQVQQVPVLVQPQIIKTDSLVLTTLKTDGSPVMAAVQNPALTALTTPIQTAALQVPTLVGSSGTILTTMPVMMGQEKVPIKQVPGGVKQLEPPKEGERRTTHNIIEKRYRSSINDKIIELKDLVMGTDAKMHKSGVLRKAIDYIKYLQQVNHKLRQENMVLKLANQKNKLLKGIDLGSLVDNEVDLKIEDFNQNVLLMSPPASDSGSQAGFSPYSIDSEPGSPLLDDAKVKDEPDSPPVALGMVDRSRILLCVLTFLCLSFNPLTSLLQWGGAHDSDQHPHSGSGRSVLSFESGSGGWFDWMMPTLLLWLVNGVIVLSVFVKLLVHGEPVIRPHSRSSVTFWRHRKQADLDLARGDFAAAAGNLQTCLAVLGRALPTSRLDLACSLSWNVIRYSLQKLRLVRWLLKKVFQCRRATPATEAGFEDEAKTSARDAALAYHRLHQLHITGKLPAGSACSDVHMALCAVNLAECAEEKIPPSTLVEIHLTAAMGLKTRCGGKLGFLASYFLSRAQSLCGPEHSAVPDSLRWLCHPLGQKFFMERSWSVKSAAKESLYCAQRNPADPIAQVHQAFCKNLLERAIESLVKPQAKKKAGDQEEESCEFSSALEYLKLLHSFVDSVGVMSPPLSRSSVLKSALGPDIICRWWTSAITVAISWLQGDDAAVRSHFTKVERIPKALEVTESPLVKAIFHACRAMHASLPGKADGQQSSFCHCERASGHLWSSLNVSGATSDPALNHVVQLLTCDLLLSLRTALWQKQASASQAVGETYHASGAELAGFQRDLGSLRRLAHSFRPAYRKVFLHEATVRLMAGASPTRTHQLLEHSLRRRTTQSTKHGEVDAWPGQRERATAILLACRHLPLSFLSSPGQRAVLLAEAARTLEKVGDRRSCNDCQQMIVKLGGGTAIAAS

[3] abbreviates: HFD-fed MUP-uPA mice, 10 μg/g i.p. every other day for 6 weeks.
The mark [4] stands for this setting: HFD-fed MUP-uPA mice, 10 μg/g i.p. every other day for 6 weeks, liver.
[5] abbreviates: HFD-fed MUP-uPA mice, 10 μg/g i.p. on alternate days for 6 weeks.
Setting [6] is: HFD-fed MUP-uPA mice, 10 μg/g i.p. on alternate days for 6 weeks, liver sections.
[7] abbreviates: liver WCL, IB, HFD-fed MUP-uPA mice, 10 μg/g i.p. on alternate days for 6 weeks.

Take z-VDVAD-fmk: in the data set with HFD-fed MUP-uPA mice (setting [3]), the “ATM (adipose tissue macrophage) accumulation / infiltration into epidydimal fat” value is reported as “reduced”, the “UCP1 expression in BAT” value is reported as “elevating”, the “inflammatory infiltration in livers” value was “decreased” and the “liver TG” value was “significantly prevented”. In the data set on HFD-fed MUP-uPA mice (setting [3]), the liver fibrosis result is reported as “dramatically reduced”, the “circulating TG” value is listed as “decreased” and the circulating cholesterol result was “decreased”. The “MDB (Mallory-Denk body) formation” value in the data set on HFD-fed MUP-uPA mice (setting [4]) is recorded as “decreased”.
In the case of `C[C@H](CCC(=O)NCCS(=O)(=O)O)[C@H]1CC[C@H]2[C@@H]3[C@@H](O)C[C@@H]4C[C@H](O)CC[C@]4(C)[C@H]3CC[C@]12C` [TUDCA, tauroursodeoxycholic acid], in the data set with MUP-uPA mice, the NASH development result is on record as “effectively inhibited”, the “activation of sterol response element binding proteins (SREBP)” value is “attenuate” and the lipid accumulation result is “inhibit”.
For Ac-VDVAD-aldehyde, in the data set on HFD-fed MUP-uPA mice (setting [3]), the “ATM (adipose tissue macrophage) accumulation / infiltration into epidydimal fat” value was “blocked”, the “UCP1 expression in BAT” value is listed as “enhanced”, the “liver TG” value is reported as “decreased” and the liver fibrosis result was “attenuated”. Also, in the data set with HFD-fed MUP-uPA mice (setting [3]), the “circulating TG” value is “decreased” and the circulating cholesterol result is “decreased”. For the same molecule, the “MDB (Mallory-Denk body) formation” value in the data set on HFD-fed MUP-uPA mice (setting [4]) is “prevented”. In the data set with HFD-fed MUP-uPA mice (setting [5]), the blood insulin entry is “had no effect” and the body weight result was “had no effect”. Moreover, the hepatic steatosis result with HFD-fed MUP-uPA mice (HFD-fed MUP-uPA mice, 10 μg/g i.p. on alternate days for 6 weeks after 6 weeks of HFD, liver sections) is “prevented”. The macrophage recruitment entry in the data set on HFD-fed MUP-uPA mice (HFD-fed MUP-uPA mice, 10 μg/g i.p. on alternate days for 6 weeks, liver) is “decreasing”. Also, in the data set on HFD-fed MUP-uPA mice (setting [6]), the ballooning degeneration result is “prevented” and the p62 accumulation result is recorded as “prevented”. Also, in the data set with HFD-fed MUP-uPA mice (IB of liver WCL and NE, HFD-fed MUP-uPA mice, 10 μg/g i.p. on alternate days for 6 weeks), the “SREBP1/2 activation in liver” value is “attenuated”. In the data set with HFD-fed MUP-uPA mice (IB of liver and muscle extracts, HFD-fed MUP-uPA mice, 10 μg/g i.p. on alternate days for 6 weeks), the “energy expenditure, as suggested by AMPK activation in peripheral tissues, including liver and skeletal muscle” value was “increased”. Besides, the “established NASH” value in the data set with HFD-fed MUP-uPA mice (MUP-uPA mice, 10 μg/g for 6 weeks after 6 weeks of HFD feeding, kept on HFD) is on record as “ameliorates”. Further, the adipocyte enlargement entry in the data set on HFD-fed MUP-uPA mice (epidydimal fat, HFD-fed MUP-uPA mice, 10 μg/g i.p. on alternate days for 6 weeks) was “blocked”. Besides, in the data set on HFD-fed MUP-uPA mice (setting [7]), the “INSIG1 or 2 expression” value is recorded as “had no effect”, the IRS2 expression entry is “had no effect”, the StARD4 expression result is “reduced” and the mTORC1/p70S6K activation entry was “had no effect”. Further, the “expression of inflammatory cytokines and markers as well as fibrosis-related genes” value in the data set with HFD-fed MUP-uPA mice (qRT-PCR, HFD-fed MUP-uPA mice, 10 μg/g i.p. on alternate days for 6 weeks) was “reduced”.
Turning to tunicamycin, the “Casp2 protein and RNA in liver” value in the data set with Casp2 was “induced”.
On to `O=C(O)CCCc1ccccc1` [PBA, phenyl butyric acid], for which, in the data set with MUP-uPA mice, the NASH development entry was “effectively inhibited”, the “activation of sterol response element binding proteins (SREBP)” value is reported as “attenuate” and the lipid accumulation entry is “inhibit”.
As to `C[C@H](NC(=O)C(=O)Nc1ccccc1C(C)(C)C)C(=O)N[C@@H](CC(=O)O)C(=O)COc1c(F)c(F)cc(F)c1F` [IDN-6556], in data set [1] (broad-spectrum (pan-caspase) inhibitor), the “activity against human caspases” value is “activity against all tested human caspases”. Besides, the “inhibition of other classes of proteases or other enzymes or receptors other than caspases” value in data set [1] (selectivity) is reported as “no inhibition”.

B1: Casp2-HA (mouse Casp2 with a C terminal HA epitope) (protein)
chain: MAAPSGRSQSSLHRKGLMAADRRSRILAVCGMHPDHQETLKKNRVVLAKQLLLSELLEHLLEKDIITLEMRELIQAKGGSFSQNVELLNLLPKRGPQAFDAFCEALRETRQGHLEDLLLTTLSDIQHVLPPLSCDYDTSLPFSVCESCPPHKQLRLSTDATEHSLDNGDGPPCLLVKPCTPEFYQAHYQLAYRLQSQPRGLALVLSNVHFTGEKDLEFRSGGDVDHTTLVTLFKLLGYNVHVLHDQTAQEMQEKLQNFAQLPAHRVTDSCVVALLSHGVEGGIYGVDGKLLQLQEVFRLFDNANCPSLQNKPKMFFIQACRGDETDRGVDQQDGKNHTQSPGCEESDAGKEELMKMRLPTRSDMICGYACLKGNAAMRNTKRGSWYIEALTQVFSERACDMHVADMLVKVNALIKEREGYAPGTEFHRCKEMSEYCSTLCQQLYLFPGYPPT
For B1, the “SREBP activation/cleavage (immunoblot)” value in data set [2] is given as “co-transfection of Casp2 with SREBP2 into either SCAP-deficient (293^ΔSCAP) or WT HEK293 cells did not result in SREBP1/2 activation/cleavage, unless an SP expression vector was also included”.

Values taken from patent US20190351003A1, “METHODS FOR INHIBITING NONALCOHOLIC STEATOHEPATITIS, NONALCOHOLIC FATTY LIVER DISEASE, AND/OR DE NOVO LIPOGENESIS” (The Regents of the University of California, priority 2017, published 2019).
